The numbers were not newly measured in patent US20120116113A1, “PROCESS FOR MAKING NEO-ENRICHED p-MENTHANE COMPOUNDS” (priority 2010, published 2012), which cites them from elsewhere.

The conditions of this data set: for initial cooling rating: table below paragraph [0137] of U.S. Pat. Appl. 2010/0076080.

On to `CC(C)[C@@H]1CC[C@@H](C)C[C@@H]1C(=O)Nc1ccc(CC#N)cc1` (single isomer, unassigned) [neo isomer [of G-180]], for which the cooling effect result (according to Yelm et al., U.S. Pat. Appl. 2010/0076080) was “potent and long-lasting cooling effect”.
Take `CCOC(=O)CNC(=O)C1CC(C)CCC1C(C)C` (stereo not drawn) [neo-WS-5]: the initial cooling rating is given as 61.9.
On to `CCOC(=O)CNC(=O)[C@@H]1C[C@H](C)CC[C@H]1C(C)C` [normal WS-5], for which the initial cooling rating was 53.9.
